In patent US6989396B2, “Tropane alkaloid multidrug resistance inhibitors from Erythroxylum pervillei and use of the same” (The Board of Trustees of the University of Illinois, priority 2001, dated 2006):
In brackets after ≈: the same amount, converted by molar mass. Like-named read-outs stand apart in the source and are kept apart here.

How the values were obtained:
[1] = system: SKOV3 (ovarian adenocarcinoma); assay: Cytotoxicity in ovarian adenocarcinoma SKOV3 (pGp -ve); assay type: cell-based
Experimental: (§1) Cytotoxicity assay. Compounds 1–9 were evaluated for cytotoxic activity against a panel of human cancer cell lines, including KB-V1 in the presence and absence of VLB, according to an established protocol (68).

[2] = system: SKVLB (ovarian adenocarcinoma, multidrug resistance); assay: Multidrug resistance inhibition in SKVLB (pGp +ve); assay type: cell-based, human
HCT-15, colon = assay: In vitro multidrug resistance modulation (DINIB synergy): HCT-15; assay type: cell-based, human; settings: increase of cytotoxicity of DINIB 1 × 10^−4 M; modulator μg/mL: verapamil 12.5, cyclosporin A 6.3, pervilleine B 12.5, C 3.1, D 50.0, F 25.0; <25 insignificant, >100 strong synergy
Excerpt: (§2) Alkaloids 5–7 and 9 were further evaluated for their efficacy as potential modulators of P-glycoprotein. This assay assessed the ability of these test compounds to increase the cytotoxicity of an agent of the MDR phenotype {4,9-dihydro-3-iso-butyl-2-methyl-1-(p-nitrophenacyl)-4,9-dioxo-1H-naphth[2-3-d]imidazolium bromide (DINIB)}, compared with an agent not of the MDR phenotype (5-flurouracil), used as a negative control (73, 74).
(§3) In vitro multidrug resistance assay.

UO-31, renal = assay: In vitro multidrug resistance modulation (DINIB synergy): UO-31; assay type: cell-based, human; settings: increase of cytotoxicity of DINIB 1 × 10^−4 M; modulator μg/mL: verapamil 12.5, cyclosporin A 6.3, pervilleine B 12.5, C 3.1, D 50.0, F 25.0; <25 insignificant, >100 strong synergy
Excerpt: as §2, §3

CAKI-1, renal = assay: In vitro multidrug resistance modulation (DINIB synergy): CAKI-1; assay type: cell-based, human; settings: increase of cytotoxicity of DINIB 1 × 10^−4 M; modulator μg/mL: verapamil 12.5, cyclosporin A 6.3, pervilleine B 12.5, C 3.1, D 50.0, F 25.0; <25 insignificant, >100 strong synergy
Excerpt: as §2, §3

LOX IMVI, melanoma = assay: In vitro multidrug resistance modulation (DINIB synergy): LOX IMVI; assay type: cell-based, human; settings: increase of cytotoxicity of DINIB 1 × 10^−4 M; modulator μg/mL: verapamil 12.5, cyclosporin A 6.3, pervilleine B 12.5, C 3.1, D 50.0, F 25.0; <25 insignificant, >100 strong synergy
Excerpt: as §2, §3

BC1, breast cancer = assay: In vitro cytotoxicity, human tumor panel: BC1; assay type: cell-based; settings: Homo sapiens, read-out: ED50 BCI
Experimental: as §1

Lu1, lung cancer = assay: In vitro cytotoxicity, human tumor panel: Lu1; assay type: cell-based; settings: Homo sapiens, read-out: ED50 Lu1
Experimental: as §1

Col2, colon cancer = assay: In vitro cytotoxicity, human tumor panel: Col2; assay type: cell-based; settings: Homo sapiens, read-out: ED50 Col2
Experimental: as §1

[3] = system: KB, oral epidermoid carcinoma; assay: In vitro cytotoxicity, human tumor panel: KB; assay type: cell-based; settings: Homo sapiens, read-out: ED50 KB
Experimental: as §1

KB-V1, drug resistant KB = assay: In vitro cytotoxicity, human tumor panel: KB-V1 with or without vinblastine; assay type: cell-based; settings: for IC50: Homo sapiens, KB-V1, drug-resistant KB assessed in the absence of vinblastine, read-out: ED50 KB-V1−; for ED50 KB-V1+: drug resistant KB assessed in presence of vinblastine (1 μg/mL)
Experimental: as §1

[4] = system: LNCaP, hormone-dependent prostate cancer; assay: In vitro cytotoxicity, human tumor panel: LNCaP; assay type: cell-based; settings: Homo sapiens, LNCaP, read-out: ED50 LNCaP
Experimental: as §1

[5] = system: SW626, human ovarian adenocarcinoma; assay: In vitro cytotoxicity, human tumor panel: SW626; assay type: cell-based; settings: SW626, read-out: ED50 SW626
Experimental: as §1

COc1cc2c(cc1OC)CN(CCc1ccc(NC(=O)c3cccc4c(=O)c5cccc(OC)c5[nH]c34)cc1)CC2 [GB120918, N-{4-[2-(1,2,3,4-tetrahydro-6,7-dimethoxy-2-isoquinolinyl)-ethyl]-phenyl}-9,10-dihydro-5-methoxy-9-oxo-4-acridine carboxamide, reference compound]
IC50 ([1]; Homo sapiens, SK-OV-3; read-out: IC50 SKOV3 (pGp − ve)): 8.1 µM | IC50 ([2]; Homo sapiens, Addition of 1 μm adriamycin, read-out: IC50 SKVLB (pGp + ve), addition of adriamycin): 0.02 µM | IC50 ([2]; Homo sapiens, no adriamycin added, read-out: IC50 BSKVLB (pGp + ve)): 14 µM

cyclosporin A [reference compound]
synergy value at a 95% confidence level, HCT-15 (HCT-15, colon): 719.1 | synergy value at a 95% confidence level, UO-31 (UO-31, renal): 642.1 | synergy value at a 95% confidence level, CAKI-1 (CAKI-1, renal): 273.3 | synergy value at a 95% confidence level, LOX IMVI (LOX IMVI, melanoma): 72.9

COc1cc(C=CC(=O)O[C@H]2[C@@H](O)[C@@H]3C[C@H](OC(=O)c4cc(OC)c(OC)c(OC)c4)C[C@H]2[N+]3(C)[O-])cc(OC)c1OC (stereo partly drawn) [Compound 4, 3α-(3,4,5-trimethoxybenzoyloxy)-6β-(3,4,5-trimethoxycinnamoyloxy)-7β-hydroxytropane N-oxide]
IC50 (BC1, breast cancer): > 20 µg/mL | IC50 (Lu1, lung cancer): > 20 µg/mL | IC50 (Col2, colon cancer): > 20 µg/mL | IC50 [3]: > 20 µg/mL | IC50 (KB-V1, drug resistant KB): > 20 µg/mL | ED50 KB-V1+ (KB-V1, drug resistant KB): >20 µg/mL | IC50 [4]: > 20 µg/mL | IC50 [5]: > 20 µg/mL | IC50 ([1]; Homo sapiens, SK-OV-3, read-out: IC50 SKOV3 (pGp − ve)): > 10 µM | IC50 ([2]; Homo sapiens, read-out: IC50 BSKVLB (pGp + ve)): > 10 µM | IC50 ([2]; read-out: IC50 SKVLB (pGp + ve), addition of adriamycin, Addition of 1 μm adriamycin): > 10 µM | melting point: 118 to 121 °C

COc1cc(C=CC(=O)O[C@H]2C[C@@H]3C[C@H](OC(=O)Cc4cccc(O)c4)C[C@H]2N3C)cc(OC)c1OC [Compound 8, 3α-(3-hydroxyphenylacetoxy)-6β-(3,4,5-trimethoxycinnamoyloxy)-tropane]
IC50 (BC1, breast cancer): > 20 µg/mL | IC50 (Lu1, lung cancer): > 20 µg/mL | IC50 (Col2, colon cancer): 13.4 µg/mL (≈ 26.2 µM) | IC50 [3]: 14.7 µg/mL (≈ 28.7 µM) | IC50 (KB-V1, drug resistant KB): > 20 µg/mL | ED50 KB-V1+ (KB-V1, drug resistant KB): 1.9 µg/mL | IC50 [4]: > 20 µg/mL | IC50 [5]: 8.4 µg/mL (≈ 16.4 µM) | melting point: 53 to 57 °C
